# Assay results: patent publication US11572369B2, “Bicyclic pyridine compositions and methods of using the same for cancer therapy” (UNIVERSITY OF SOUTH CAROLINA, priority 2019, dated 2023)
# Assays:
# Experiment in all cases: KINOMEscan
# Format in all cases: binding
# Conditions in all cases: 2000 nM
# [1] = target: ABL1(H396P)-phosphorylated (Homo sapiens, UniProt P00519, H396P)
# [2] = target: ABL1(Q252H)-nonphosphorylated (Homo sapiens, UniProt P00519, Q252H)
# ACVR1B = target: T1, ACVR1B (Homo sapiens, UniProt P36896)
# T1 construct: purchased DiscoveRx (KINOMEscan scanMAX panel, service)
# ASK2 = target: T2, ASK2 (Homo sapiens, UniProt O95382)
# T2 construct: DNA label (qPCR read-out); purchased KINOMEscan scanMAX panel (DiscoveRx)
# AURKA = target: T3, AURKA (Homo sapiens, UniProt O14965)
# T3 construct: DNA label (qPCR read-out); purchased KINOMEscan scanMAX panel (DiscoveRx)
# BMPR1A = target: T4, BMPR1A (Homo sapiens, UniProt P36894)
# T4 construct: DNA label (for qPCR read-out); purchased KINOMEscan scanMAX panel (DiscoveRx)
# CAMK2A = target: T5, CAMK2A (Homo sapiens, UniProt Q9UQM7)
# T5 construct: DNA label (qPCR read-out); purchased KINOMEscan (ScanMAX panel service)
# ERK8 = target: T6, ERK8 (Homo sapiens, UniProt Q8TD08)
# T6 construct: DNA label (qPCR read-out); purchased DiscoveRx (KINOMEscan ScanMAX panel)
# FGFR3 = target: T7, FGFR3 (Homo sapiens, UniProt P22607)
# T7 construct: purchased DiscoveRx (KINOMEscan scanMAX panel)
# FLT1 = target: T8, FLT1 (Homo sapiens, UniProt P17948)
# T8 construct: purchased DiscoveRx (KINOMEscan scanMAX panel)
# HIPK4 = target: T9, HIPK4 (Homo sapiens, UniProt Q8NE63)
# T9 construct: DNA label (for qPCR read-out); purchased DiscoveRx (KINOMEscan scanMAX panel, contract assay)
# IKK-alpha = target: T10, IKK-alpha (Homo sapiens, UniProt O15111)
# T10 construct: DNA label (qPCR read-out); purchased KINOMEscan (DiscoveRx) ScanMAX panel
# IRAK1 = target: T11, IRAK1 (Homo sapiens, UniProt P51617)
# T11 construct: DNA label (qPCR read-out); purchased KINOMEscan (DiscoveRx) ScanMAX panel
# JNK3 = target: T12, JNK3 (Homo sapiens, UniProt P53779)
# T12 construct: DNA label (for qPCR read-out); purchased DiscoveRx (KINOMEscan scanMAX panel)
# MAP3K3 = MAP3K3 (Homo sapiens, UniProt Q99759)
# MKNK2 = target: T13, MKNK2 (Homo sapiens, UniProt Q9HBH9)
# T13 construct: DNA label (qPCR read-out); purchased KINOMEscan scanMAX panel (DiscoveRx)
# NEK11 = target: T14, NEK11 (Homo sapiens, UniProt Q8NG66)
# T14 construct: DNA label (qPCR read-out); purchased KINOMEscan (ScanMAX panel service)
# NLK = target: T15, NLK (Homo sapiens, UniProt Q9UBE8)
# T15 construct: DNA label (qPCR read-out); purchased KINOMEscan (ScanMAX panel service)
# p38-gamma = target: T16, p38-gamma (Homo sapiens, UniProt P53778)
# T16 construct: purchased DiscoverX (KINOMEscan service)
# PAK2 = target: T17, PAK2 (Homo sapiens, UniProt Q13177)
# T17 construct: purchased DiscoverX (KINOMEscan service)
# PHKG2 = target: T18, PHKG2 (Homo sapiens, UniProt P15735)
# T18 construct: DNA label (for qPCR read-out); purchased DiscoveRx (KINOMEscan scanMAX service)
# PKN1 = target: T19, PKN1 (Homo sapiens, UniProt Q16512)
# T19 construct: DNA label (qPCR read-out); purchased KINOMEscan (DiscoveRx) panel
# PRKCE = target: T20, PRKCE (Homo sapiens, UniProt Q02156)
# T20 construct: purchased DiscoveRx (KINOMEscan scanMAX panel)
# PRKCI = target: T21, PRKCI (Homo sapiens, UniProt P41743)
# T21 construct: purchased DiscoveRx (KINOMEscan scanMAX panel)
# PRKR = target: T22, PRKR (Homo sapiens, UniProt P19525)
# T22 construct: purchased DiscoveRx (KINOMEscan scanMAX panel)
# RIPK1 = target: T23, RIPK1 (Homo sapiens, UniProt Q13546)
# T23 construct: DNA label (qPCR read-out); purchased DiscoveRx (KINOMEscan ScanMAX panel)
# SgK110 = target: T24, SgK110 (Homo sapiens, UniProt P0C264)
# T24 construct: purchased DiscoveRx (KINOMEscan scanMAX panel)
# SRMS = target: T25, SRMS (Homo sapiens, UniProt Q9H3Y6)
# T25 construct: purchased KINOMEscan (DiscoveRx)
# STK16 = target: T26, STK16 (Homo sapiens, UniProt O75716)
# T26 construct: DNA label (for qPCR read-out); purchased DiscoveRx (KINOMEscan scanMAX panel, contract assay)
# TIE1 = target: T27, TIE1 (Homo sapiens, UniProt P35590)
# T27 construct: DNA label (qPCR read-out); purchased KINOMEscan (DiscoveRx) ScanMAX panel
# TLK2 = target: T28, TLK2 (Homo sapiens, UniProt Q86UE8)
# T28 construct: DNA label (qPCR read-out); purchased KINOMEscan (DiscoveRx) ScanMAX panel
# TRPM6 = target: T29, TRPM6 (Homo sapiens, UniProt Q9BX84)
# T29 construct: DNA label (for qPCR read-out); purchased DiscoveRx (KINOMEscan scanMAX panel)
# TSSK3 = target: T30, TSSK3 (Homo sapiens, UniProt Q96PN8)
# T30 construct: DNA label (for qPCR read-out); purchased DiscoveRx (KINOMEscan scanMAX panel)
# TXK = target: T31, TXK (Homo sapiens, UniProt P42681)
# T31 construct: DNA label (for qPCR read-out); purchased DiscoveRx (KINOMEscan scanMAX panel)
# WEE1 = target: T32, WEE1 (Homo sapiens, UniProt P30291)
# T32 construct: purchased KINOMEscan (DiscoveRx) panel service
# WNK2 = target: T33, WNK2 (Homo sapiens, UniProt Q9Y3S1)
# T33 construct: purchased KINOMEscan (DiscoveRx) panel service
# YSK1 = target: T34, YSK1 (Homo sapiens, UniProt O00506)
# T34 construct: purchased KINOMEscan (DiscoveRx) panel service
# T34 sequence (O00506 whole entry): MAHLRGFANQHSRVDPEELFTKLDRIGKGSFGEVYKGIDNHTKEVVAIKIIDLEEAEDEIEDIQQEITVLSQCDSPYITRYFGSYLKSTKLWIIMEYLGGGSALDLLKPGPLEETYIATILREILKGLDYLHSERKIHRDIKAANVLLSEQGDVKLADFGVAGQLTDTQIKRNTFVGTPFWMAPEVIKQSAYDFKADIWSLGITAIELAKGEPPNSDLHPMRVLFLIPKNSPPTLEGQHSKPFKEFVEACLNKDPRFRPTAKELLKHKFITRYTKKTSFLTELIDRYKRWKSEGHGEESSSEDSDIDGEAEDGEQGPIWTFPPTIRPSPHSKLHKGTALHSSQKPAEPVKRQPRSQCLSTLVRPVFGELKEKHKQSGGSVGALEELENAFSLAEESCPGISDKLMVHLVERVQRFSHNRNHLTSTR
# T14 sequence (Q8NG66 whole entry): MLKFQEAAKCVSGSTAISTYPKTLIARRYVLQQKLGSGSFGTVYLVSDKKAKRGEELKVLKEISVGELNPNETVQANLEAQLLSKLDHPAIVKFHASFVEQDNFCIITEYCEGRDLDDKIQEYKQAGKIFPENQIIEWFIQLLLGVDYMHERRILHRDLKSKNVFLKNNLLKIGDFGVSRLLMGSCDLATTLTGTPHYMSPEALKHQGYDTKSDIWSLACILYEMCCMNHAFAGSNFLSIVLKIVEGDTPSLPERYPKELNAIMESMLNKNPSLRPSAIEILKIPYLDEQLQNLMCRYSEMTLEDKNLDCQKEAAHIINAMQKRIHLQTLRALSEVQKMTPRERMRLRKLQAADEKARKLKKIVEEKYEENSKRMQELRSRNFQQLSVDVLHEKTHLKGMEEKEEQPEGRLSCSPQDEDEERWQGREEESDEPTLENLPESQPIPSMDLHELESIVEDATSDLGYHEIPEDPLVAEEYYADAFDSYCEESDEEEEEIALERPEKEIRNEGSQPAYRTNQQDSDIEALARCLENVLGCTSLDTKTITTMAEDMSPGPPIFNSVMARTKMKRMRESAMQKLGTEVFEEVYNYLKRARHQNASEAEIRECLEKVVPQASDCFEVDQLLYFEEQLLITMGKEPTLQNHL
# T22 sequence (P19525 whole entry): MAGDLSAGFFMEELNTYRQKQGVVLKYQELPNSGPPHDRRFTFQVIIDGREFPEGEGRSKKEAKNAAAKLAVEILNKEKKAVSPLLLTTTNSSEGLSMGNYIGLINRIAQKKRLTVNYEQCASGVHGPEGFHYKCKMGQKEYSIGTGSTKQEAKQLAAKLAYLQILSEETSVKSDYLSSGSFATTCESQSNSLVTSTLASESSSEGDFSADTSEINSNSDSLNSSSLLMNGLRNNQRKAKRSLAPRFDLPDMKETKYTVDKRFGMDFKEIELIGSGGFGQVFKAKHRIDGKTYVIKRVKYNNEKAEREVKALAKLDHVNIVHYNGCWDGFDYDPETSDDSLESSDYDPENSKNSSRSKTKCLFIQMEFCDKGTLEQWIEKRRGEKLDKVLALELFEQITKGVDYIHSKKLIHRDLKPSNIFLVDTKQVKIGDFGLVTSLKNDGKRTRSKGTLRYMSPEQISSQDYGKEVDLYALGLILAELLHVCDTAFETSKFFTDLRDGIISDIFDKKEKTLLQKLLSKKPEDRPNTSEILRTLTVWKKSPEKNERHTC
# T20 sequence (Q02156 whole entry): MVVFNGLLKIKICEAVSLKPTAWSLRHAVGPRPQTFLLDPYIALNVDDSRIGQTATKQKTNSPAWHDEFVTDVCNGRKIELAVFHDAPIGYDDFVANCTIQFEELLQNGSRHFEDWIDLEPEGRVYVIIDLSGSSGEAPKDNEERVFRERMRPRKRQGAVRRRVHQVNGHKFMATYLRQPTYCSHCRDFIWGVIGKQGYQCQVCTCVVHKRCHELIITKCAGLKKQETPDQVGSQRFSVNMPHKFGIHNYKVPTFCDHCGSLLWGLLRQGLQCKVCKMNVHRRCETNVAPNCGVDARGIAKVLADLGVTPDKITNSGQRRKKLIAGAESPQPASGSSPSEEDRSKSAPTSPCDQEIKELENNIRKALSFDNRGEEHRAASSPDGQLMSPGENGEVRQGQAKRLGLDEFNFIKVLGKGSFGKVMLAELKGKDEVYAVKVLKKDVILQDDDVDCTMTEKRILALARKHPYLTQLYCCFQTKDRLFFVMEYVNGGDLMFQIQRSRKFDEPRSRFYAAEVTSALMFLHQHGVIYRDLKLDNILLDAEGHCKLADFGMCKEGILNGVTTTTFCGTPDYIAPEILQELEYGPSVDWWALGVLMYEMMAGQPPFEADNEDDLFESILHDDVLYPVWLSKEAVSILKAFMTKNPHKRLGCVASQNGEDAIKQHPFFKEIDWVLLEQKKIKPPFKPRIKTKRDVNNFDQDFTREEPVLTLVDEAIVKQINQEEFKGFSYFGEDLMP
# T16 sequence (P53778 whole entry): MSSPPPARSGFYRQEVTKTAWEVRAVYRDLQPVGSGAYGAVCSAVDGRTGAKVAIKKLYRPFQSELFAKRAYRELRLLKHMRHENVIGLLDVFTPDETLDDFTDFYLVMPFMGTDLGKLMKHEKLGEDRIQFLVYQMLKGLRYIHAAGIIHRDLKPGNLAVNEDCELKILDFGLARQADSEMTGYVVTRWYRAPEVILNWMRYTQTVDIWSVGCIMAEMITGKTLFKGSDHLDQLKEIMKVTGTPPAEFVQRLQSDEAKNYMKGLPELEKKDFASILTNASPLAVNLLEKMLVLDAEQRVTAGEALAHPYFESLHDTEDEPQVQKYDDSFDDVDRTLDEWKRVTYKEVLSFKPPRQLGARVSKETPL
# T23 sequence (Q13546 whole entry): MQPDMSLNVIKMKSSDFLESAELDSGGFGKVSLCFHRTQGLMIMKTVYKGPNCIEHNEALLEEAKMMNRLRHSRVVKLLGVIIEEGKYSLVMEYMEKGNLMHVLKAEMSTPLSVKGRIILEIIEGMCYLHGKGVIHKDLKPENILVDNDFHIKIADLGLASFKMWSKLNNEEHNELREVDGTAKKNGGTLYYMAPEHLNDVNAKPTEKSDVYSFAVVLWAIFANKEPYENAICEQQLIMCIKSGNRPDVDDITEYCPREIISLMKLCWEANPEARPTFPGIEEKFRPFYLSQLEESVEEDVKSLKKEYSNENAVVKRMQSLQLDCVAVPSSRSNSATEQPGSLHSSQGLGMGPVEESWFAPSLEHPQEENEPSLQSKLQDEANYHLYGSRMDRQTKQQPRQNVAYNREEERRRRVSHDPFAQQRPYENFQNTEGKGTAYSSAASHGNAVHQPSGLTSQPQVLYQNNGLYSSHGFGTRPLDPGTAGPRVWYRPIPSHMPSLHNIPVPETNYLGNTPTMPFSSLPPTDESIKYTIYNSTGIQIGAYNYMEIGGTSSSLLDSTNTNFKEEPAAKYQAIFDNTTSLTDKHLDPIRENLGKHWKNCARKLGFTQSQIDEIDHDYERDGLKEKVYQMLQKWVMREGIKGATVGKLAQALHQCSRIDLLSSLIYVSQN
# T27 sequence (P35590 22-1138): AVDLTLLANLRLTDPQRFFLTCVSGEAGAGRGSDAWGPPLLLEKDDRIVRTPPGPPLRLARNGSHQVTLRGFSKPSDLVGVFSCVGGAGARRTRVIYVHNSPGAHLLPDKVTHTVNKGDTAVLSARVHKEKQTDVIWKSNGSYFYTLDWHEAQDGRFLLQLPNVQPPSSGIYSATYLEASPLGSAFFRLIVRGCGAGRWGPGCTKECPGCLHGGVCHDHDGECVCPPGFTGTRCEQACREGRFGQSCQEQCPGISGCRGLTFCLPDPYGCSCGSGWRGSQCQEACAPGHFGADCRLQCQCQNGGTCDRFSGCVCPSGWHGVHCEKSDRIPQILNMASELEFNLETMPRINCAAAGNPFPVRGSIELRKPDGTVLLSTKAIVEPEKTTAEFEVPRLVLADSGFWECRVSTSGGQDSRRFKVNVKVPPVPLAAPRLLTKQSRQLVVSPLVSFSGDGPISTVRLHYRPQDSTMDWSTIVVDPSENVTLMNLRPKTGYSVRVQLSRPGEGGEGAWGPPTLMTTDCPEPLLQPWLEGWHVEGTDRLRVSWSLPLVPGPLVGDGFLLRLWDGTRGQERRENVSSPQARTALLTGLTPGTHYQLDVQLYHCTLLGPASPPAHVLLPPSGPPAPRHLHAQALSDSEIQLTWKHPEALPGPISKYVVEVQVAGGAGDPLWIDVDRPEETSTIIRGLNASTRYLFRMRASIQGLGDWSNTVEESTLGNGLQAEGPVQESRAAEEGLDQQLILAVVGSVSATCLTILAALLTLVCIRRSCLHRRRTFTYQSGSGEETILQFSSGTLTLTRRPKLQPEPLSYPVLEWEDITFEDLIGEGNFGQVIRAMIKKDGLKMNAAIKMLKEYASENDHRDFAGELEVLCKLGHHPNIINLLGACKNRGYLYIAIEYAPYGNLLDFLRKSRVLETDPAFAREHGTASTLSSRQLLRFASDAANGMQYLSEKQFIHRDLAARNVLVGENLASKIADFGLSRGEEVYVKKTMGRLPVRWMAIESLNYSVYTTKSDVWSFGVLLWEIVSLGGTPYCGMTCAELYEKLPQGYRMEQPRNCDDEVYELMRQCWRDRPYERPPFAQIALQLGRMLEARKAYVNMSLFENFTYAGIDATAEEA
# T25 sequence (Q9H3Y6 whole entry): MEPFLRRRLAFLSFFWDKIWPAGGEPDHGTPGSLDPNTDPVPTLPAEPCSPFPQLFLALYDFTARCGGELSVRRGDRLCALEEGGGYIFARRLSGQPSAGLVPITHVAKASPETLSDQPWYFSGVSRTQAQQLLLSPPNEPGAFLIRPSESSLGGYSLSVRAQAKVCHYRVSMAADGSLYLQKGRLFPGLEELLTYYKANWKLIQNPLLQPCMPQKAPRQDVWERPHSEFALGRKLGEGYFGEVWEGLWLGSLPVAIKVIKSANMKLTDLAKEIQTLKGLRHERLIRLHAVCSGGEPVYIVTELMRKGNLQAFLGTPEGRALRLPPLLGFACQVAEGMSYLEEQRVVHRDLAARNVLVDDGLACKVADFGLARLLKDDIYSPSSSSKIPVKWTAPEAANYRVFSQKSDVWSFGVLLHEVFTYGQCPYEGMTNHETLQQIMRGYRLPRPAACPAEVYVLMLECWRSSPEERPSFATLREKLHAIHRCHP
SMILES,% Ctrl [1] [% Ctrl],% Ctrl [2] [% Ctrl],% Ctrl (ACVR1B) [% Ctrl],% Ctrl (ASK2) [% Ctrl],% Ctrl (AURKA) [% Ctrl],% Ctrl (BMPR1A) [% Ctrl],% Ctrl (CAMK2A) [% Ctrl],% Ctrl (ERK8) [% Ctrl],% Ctrl (FGFR3) [% Ctrl],% Ctrl (FLT1) [% Ctrl],% Ctrl (HIPK4) [% Ctrl],% Ctrl (IKK-alpha) [% Ctrl],% Ctrl (IRAK1) [% Ctrl],% Ctrl (JNK3) [% Ctrl],% Ctrl (MAP3K3) [% Ctrl],% Ctrl (MKNK2) [% Ctrl],% Ctrl (NEK11) [% Ctrl],% Ctrl (NLK) [% Ctrl],% Ctrl (p38-gamma) [% Ctrl],% Ctrl (PAK2) [% Ctrl],also measured
"[2H]C([2H])([2H])N(C(=O)c1ccc(N2CCCN(c3ccnc4sc(C(N)=O)c(N)c34)CC2)cc1)C([2H])([2H])[2H] [15u_D6, 3-amino-4-(4-(4-(bis(methyl-d3)carbamoyl)phenyl)-1,4-diazepan-1-yl)thieno[2,3-b]pyridine-2-carboxamide]",77,83,99,88,99,100,100,99,99,100,100,90,84,44,72,69,86,98,100,94,% Ctrl (PHKG2): 83 % Ctrl; % Ctrl (PKN1): 100 % Ctrl; % Ctrl (PRKCE): 97 % Ctrl; % Ctrl (PRKCI): 100 % Ctrl; % Ctrl (PRKR): 100 % Ctrl; % Ctrl (RIPK1): 100 % Ctrl; % Ctrl (SgK110): 100 % Ctrl; % Ctrl (SRMS): 93 % Ctrl; % Ctrl (STK16): 87 % Ctrl; % Ctrl (TIE1): 96 % Ctrl; % Ctrl (TLK2): 97 % Ctrl; % Ctrl (TRPM6): 80 % Ctrl; % Ctrl (TSSK3): 100 % Ctrl; % Ctrl (TXK): 100 % Ctrl; % Ctrl (WEE1): 88 % Ctrl; % Ctrl (WNK2): 94 % Ctrl; % Ctrl (YSK1): 98 % Ctrl
"CN(C)C(=O)c1ccc(N2CCCN(c3ccnc4sc(C(N)=O)c(N)c34)CC2)cc1 [15u, 3-amino-4-(4-(4-(dimethylcarbamoyl)phenyl)-1,4-diazepan-1-yl)thieno[2,3-b]pyridine-2-carboxamide]",94,94,100,90,98,100,90,98,98,100,100,77,94,91,100,83,90,98,98,91,% Ctrl (PHKG2): 86 % Ctrl; % Ctrl (PKN1): 96 % Ctrl; % Ctrl (PRKCE): 93 % Ctrl; % Ctrl (PRKCI): 100 % Ctrl; % Ctrl (PRKR): 100 % Ctrl; % Ctrl (RIPK1): 99 % Ctrl; % Ctrl (SgK110): 95 % Ctrl; % Ctrl (SRMS): 81 % Ctrl; % Ctrl (STK16): 80 % Ctrl; % Ctrl (TIE1): 90 % Ctrl; % Ctrl (TLK2): 100 % Ctrl; % Ctrl (TRPM6): 100 % Ctrl; % Ctrl (TSSK3): 93 % Ctrl; % Ctrl (TXK): 93 % Ctrl; % Ctrl (WEE1): 100 % Ctrl; % Ctrl (WNK2): 96 % Ctrl; % Ctrl (YSK1): 76 % Ctrl
